This assay deals with T1, hSTING (Homo sapiens, UniProt Q86WV6, G230A/H232R/R293Q/R71H).
T1 construct: host or cells: THP1-Dual KO-IFNAR2 cells
Kind of assay: STING reporter assay (luciferase) in THP1-Dual KO-IFNAR2 cells stimulated with 2'3'cGAMP. In kind it is cell-based. The conditions noted are these: 2'3'cGAMP 15 μM, 24 h, luciferase reporter activity. Summed up:
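THP1-Dual KO-IFNAR2 cells (2×10E6 cells/mL) exposed to compounds at 0.0017-100 μM final, then stimulated with 2′3′cGAMP (15 μM final) delivered by Lipofectamine 2000 transfection. After 24 h at 37° C, secreted luciferase in supernatant read by QUANTI-Luc luminescence; EC50 calculated.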
A general note: Reporter assays use an easily measured gene product as a stand-in for the process of interest.

T1 sequence (Q86WV6 whole entry R71H/G230A/H232R/R293Q): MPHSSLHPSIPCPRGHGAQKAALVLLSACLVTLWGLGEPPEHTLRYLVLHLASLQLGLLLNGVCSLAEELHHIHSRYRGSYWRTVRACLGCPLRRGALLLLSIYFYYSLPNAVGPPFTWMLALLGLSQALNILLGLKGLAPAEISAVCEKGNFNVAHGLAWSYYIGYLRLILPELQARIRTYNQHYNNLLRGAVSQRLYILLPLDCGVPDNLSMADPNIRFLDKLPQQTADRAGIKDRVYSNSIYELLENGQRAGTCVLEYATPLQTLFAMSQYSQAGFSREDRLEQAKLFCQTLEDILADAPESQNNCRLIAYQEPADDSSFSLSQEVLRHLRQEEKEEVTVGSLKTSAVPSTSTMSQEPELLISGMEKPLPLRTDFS

Turning to `O=C(Nc1ccc(N2CCN(CCC(F)(F)F)CC2)nc1)Nc1c[nH]c2ccc(F)cc12` [Compound 252, 1-(5-fluoro-1H-indol-3-yl)-3-(6-(4-(3,3,3-trifluoropropyl)piperazin-1-yl)pyridin-3-yl)urea], the EC50 (in general, the concentration at which the effect is half-maximal) lay in the range of 200 to 1000 nM.

`O=C(Nc1cnc(N2CCC(F)(F)CC2)c(F)c1)Nc1c[nH]c2ccc(Cl)cc12` [Compound 292, 1-(5-chloro-1H-indol-3-yl)-3-(6-(4,4-difluoropiperidin-1-yl)-5-fluoropyridin-3-yl)urea]: the EC50 was in the range of 40 to 200 nM.

In turn, `O=C(Nc1cnn(C2CCN(CCC(F)(F)F)CC2)c1)Nc1c[nH]c2ccc(Cl)cc12` [Compound 223, 1-(5-chloro-1H-indol-3-yl)-3-(1-(1-(3,3,3-trifluoropropyl)piperidin-4-yl)-1H-pyrazo1-4-yl)urea] had a concentration for a half-maximal effect (EC50) of 1000 to 5000 nM.

For `CCN(C(=O)Nc1c[nH]c2ccc(Cl)cc12)c1cnc(C2CCN(CC(F)(F)F)CC2)c(Cl)c1` [Compound 229, 3-(5-chloro-1H-indol-3-yl)-1-(5-chloro-6-(1-(2,2,2-trifluoroethyl)piperidin-4-yl)pyridin-3-yl)-1-ethylurea], the EC50 fell in the range of 200 to 1000 nM.

The compound `O=C(Nc1cnc(C2CCN(CC(F)(F)F)CC2)c(Cl)c1)Nc1c[nH]c2ccccc12` [Compound 279, 1-(5-chloro-6-(1-(2,2,2-trifluoroethyl)piperidin-4-yl)pyridin-3-yl)-3-(1H-indol-3-yl)urea] displayed a concentration giving a half-maximal response (EC50) of 40 to 200 nM.

`O=C(Nc1cnc(C2CC(F)(F)C2)c(F)c1)Nc1c[nH]c2ccc(Cl)cc12` [Compound 227, 1-(5-chloro-1H-indol-3-yl)-3-(6-(3,3-difluorocyclobutyl)-5-fluoropyridin-3-yl)urea] returned an EC50 of 40 to 200 nM.

`O=C(Nc1cnc(N2CCC(F)(F)CC2)c(Cl)c1)Nc1c[nH]c2cc(F)c(Cl)cc12` [Compound 170, 1-(5-chloro-6-(4.4-difluoropiperidin-1-yl)pyridin-3-yl)-3-(5-chloro-6-fluoro-1H-indol-3-yl)urea] gave an EC50 of 40 to 200 nM.

For `CC1(C)OCC(c2ncc(NC(=O)Nc3c[nH]c4ccc(Cl)cc34)cc2Cl)CO1` [Compound 264, 1-(5-chloro-1H-indol-3-yl)-3-(5-chloro-6-(2,2-dimethyl-1,3-dioxan-5-yl)pyridin-3-yl)urea], the 50% effective concentration (EC50) lay within 40 to 200 nM.

`C[C@@H]1CN(c2ncc(NC(=O)Nc3c[nH]c4cc(F)c(F)cc34)cc2Cl)C[C@@H](C)O1` [Compound 142, 1-(5-chloro-6-((2R,6R)-2,6-dimethylmorpholino)pyridin-3-yl)-3-(5,6-difluoro-1H-indol-3-yl)urea] showed a concentration for a half-maximal effect (EC50) of 40 to 200 nM.

With `O=C(Nc1cnc(N2CCC(F)(F)CC2)c(Cl)c1)Nc1c[nH]c2ccccc12` [Compound 206, 1-(5-chloro-6-(4,4-difluoropiperidin-1-yl)pyridin-3-yl)-3-(1H-indol-3-yl)urea], the EC50 is 40 to 200 nM.

For the compound `Cc1cc(NC(=O)Nc2c[nH]c3ccc(Cl)cc23)cnc1C1CCN(CC(F)(F)F)CC1` [Compound 133, 1-(5-chloro-1H-indol-3-yl)-3-(5-methyl-6-(1-(2,2,2-trifluoroethyl)piperidin-4-yl)pyridin-3-yl)urea], the EC50 lay within 40 to 200 nM.

Compound `O=C(Nc1cnc(C2CC(F)(F)C2)c(Cl)c1)Nc1c[nH]c2ccc(Cl)cc12` [Compound 144, 1-(5-chloro-1H-indol-3-yl)-3-(5-chloro-6-(3,3-difluorocyclobutyl)pyridin-3-yl)urea] came in with an EC50 of 40 to 200 nM.

In the case of `O=C(Nc1ccc(C2CCC(F)(F)CC2)nc1)Nc1c[nH]c2ccc(I)cc12` [Compound 192, 1-(6-(4,4-difluorocyclohexyl)pyridin-3-yl)-3-(5-iodo-1H-indol-3-yl)urea], the EC50 fell in the range of 40 to 200 nM.

Take `COCCN1CCN(c2ncc(NC(=O)Nc3c[nH]c4cc(F)c(F)cc34)cc2C)CC1` [Compound 123, 1-(5,6-difluoro-1H-indol-3-yl)-3-(6-(4-(2-methoxyethyl)piperazin-1-yl)-5-methylpyridin-3-yl)urea]: the EC50 is 5000 to 100000 nM.

In turn, `O=C(Nc1cnc(N2CCN(CCC(F)(F)F)CC2)c(Cl)c1)Nc1c[nH]c2ccc(Cl)cc12` [Compound 124, 1-(5-chloro-1H-indol-3-yl)-3-(5-chloro-6-(4-(3,3,3-trifluoropropyl)piperazin-1-yl)pyridin-3-yl)urea] had a half-maximal effective concentration (EC50) of 40 to 200 nM.

In the case of `Cc1cc(NC(=O)Nc2c[nH]c3cc(F)c(F)cc23)cnc1C1CCOCC1` [Compound 169, 1-(5,6-difluoro-1H-indol-3-yl)-3-(5-methyl-6-(tetrahydro-2H-pyran-4-yl)pyridin-3-yl)urea], the EC50 was 200 to 1000 nM.

`CO[C@H]1CCCN(c2ncc(NC(=O)Nc3c[nH]c4cc(F)c(F)cc34)cc2Cl)C1` [Compound 148, (S)-1-(5-chloro-6-(3-methoxypiperidin-1-yl)pyridin-3-yl)-3-(5,6-difluoro-1H-indol-3-yl)urea] came in with an EC50 of 40 to 200 nM.

For the compound `O=C(Nc1cnc(N2CCC3(CC2)CC3(F)F)c(Cl)c1)Nc1c[nH]c2ccc(Cl)cc12` [Compound 237, 1-(5-chloro-1H-indol-3-yl)-3-(5-chloro-6-(1,1-difluoro-6-azaspiro[2.5]octan-6-yl)pyridin-3-yl)urea], the EC50 lay within 40 to 200 nM.

`O=C(Nc1cnc(N2CCC3(CC2)CC(F)(F)C3)c(Cl)c1)Nc1c[nH]c2ccc(Cl)cc12` [Compound 275, 1-(5-chloro-1H-indol-3-yl)-3-(5-chloro-6-(2,2-difluoro-7-azaspiro[3.5]nonan-7-yl)pyridin-3-yl)urea] yielded an EC50 of 40 to 200 nM.

For the compound `Cc1cc(NC(=O)Nc2c[nH]c3cc(F)c(F)cc23)cnc1N1CCO[C@@H](C)C1` [Compound 151, (S)-1-(5,6-difluoro-1H-indol-3-yl)-3-(5-methyl-6-(2-methylmorpholino)pyridin-3-yl)urea], the EC50 is 200 to 1000 nM.

In turn, `Cc1cc(NC(=O)Nc2c[nH]c3ccccc23)cnc1N1CCC(F)(F)CC1` [Compound 201, 1-(6-(4,4-difluoropiperidin-1-yl)-5-methylpyridin-3-yl)-3-(1H-indol-3-yl)urea] came in with an EC50 of 200 to 1000 nM.

Consider `O=C(Nc1cnn(C2CCC(F)(F)CC2)c1)Nc1c[nH]c2cc(F)c(Cl)cc12` [Compound 230, 1-(5-chloro-6-fluoro-1H-indol-3-yl)-3-(1-(4,4-difluorocyclohexyl)-1H-pyrazol-4-yl)urea], for which the EC50 lay in the range of 200 to 1000 nM.

For `O=C(Nc1cnc(C2CC(F)(F)C2)c(Cl)c1)Nc1c[nH]c2ccccc12` [Compound 283, 1-(5-chloro-6-(3,3-difluorocyclobutyl)pyridin-3-yl)-3-(1H-indol-3-yl)urea], the EC50 is 40 to 200 nM.

For `CC1(C)CN(c2ncc(NC(=O)Nc3c[nH]c4ccc(Cl)cc34)cc2Cl)CCO1` [Compound 298, 1-(5-chloro-1H-indol-3-yl)-3-(5-chloro-6-(2,2-dimethylmorpholino)pyridin-3-yl)urea], the EC50 is 40 to 200 nM.

Consider `O=C(Nc1cnc(C2CCN(CC(F)(F)F)CC2)c(F)c1)Nc1c[nH]c2ccc(F)cc12` [Compound 270, 1-(5-fluoro-1H-indol-3-yl)-3-(5-fluoro-6-(1-(2,2,2-trifluoroethyl)piperidin-4-yl)pyridin-3-yl)urea], for which the EC50 lay within 40 to 200 nM.

For `O=C(Nc1cnc(N2CCN(CC(F)F)CC2)c(Cl)c1)Nc1c[nH]c2ccc(Cl)cc12` [Compound 261, 1-(5-chloro-1H-indol-3-yl)-3-(5-chloro-6-(4-(2,2-difluoroethyl)piperazin-1-yl)pyridin-3-yl)urea], the EC50 is 40 to 200 nM.

Source of the values: patent US20230127839A1, “COMPOUNDS AND COMPOSITIONS FOR TREATING CONDITIONS ASSOCIATED WITH STING ACTIVITY” (IFM Due, Inc., priority 2019, published 2023).
